# Source: ChEMBL document CHEMBL5241076, “Natural products and analogs as preventive agents for metabolic syndrome via peroxisome proliferator-activated receptors: An overview” (Eur J Med Chem, 2021)
# What was measured:
# [1] = molecular target: T1, Peroxisome proliferator-activated receptor delta (Homo sapiens, UniProt Q03181); assay: Agonist activity at PPARdelta (unknown origin)
# T1 sequence (Q03181 whole entry): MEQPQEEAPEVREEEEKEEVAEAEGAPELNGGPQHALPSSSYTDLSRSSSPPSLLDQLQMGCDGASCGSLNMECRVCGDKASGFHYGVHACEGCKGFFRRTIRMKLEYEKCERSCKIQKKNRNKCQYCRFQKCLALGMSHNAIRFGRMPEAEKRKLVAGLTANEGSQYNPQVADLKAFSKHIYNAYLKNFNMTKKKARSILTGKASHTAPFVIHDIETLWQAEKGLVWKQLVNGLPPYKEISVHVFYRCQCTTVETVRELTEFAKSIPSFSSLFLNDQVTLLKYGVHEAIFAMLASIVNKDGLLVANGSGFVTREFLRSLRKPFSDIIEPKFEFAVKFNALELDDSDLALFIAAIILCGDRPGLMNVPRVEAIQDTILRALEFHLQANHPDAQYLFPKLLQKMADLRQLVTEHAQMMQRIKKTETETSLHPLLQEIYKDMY
# [2] = molecular target: T2, Peroxisome proliferator-activated receptor gamma (Homo sapiens, UniProt P37231); assay: Binding affinity to PPARgamma (unknown origin)
# T2 sequence (P37231 whole entry): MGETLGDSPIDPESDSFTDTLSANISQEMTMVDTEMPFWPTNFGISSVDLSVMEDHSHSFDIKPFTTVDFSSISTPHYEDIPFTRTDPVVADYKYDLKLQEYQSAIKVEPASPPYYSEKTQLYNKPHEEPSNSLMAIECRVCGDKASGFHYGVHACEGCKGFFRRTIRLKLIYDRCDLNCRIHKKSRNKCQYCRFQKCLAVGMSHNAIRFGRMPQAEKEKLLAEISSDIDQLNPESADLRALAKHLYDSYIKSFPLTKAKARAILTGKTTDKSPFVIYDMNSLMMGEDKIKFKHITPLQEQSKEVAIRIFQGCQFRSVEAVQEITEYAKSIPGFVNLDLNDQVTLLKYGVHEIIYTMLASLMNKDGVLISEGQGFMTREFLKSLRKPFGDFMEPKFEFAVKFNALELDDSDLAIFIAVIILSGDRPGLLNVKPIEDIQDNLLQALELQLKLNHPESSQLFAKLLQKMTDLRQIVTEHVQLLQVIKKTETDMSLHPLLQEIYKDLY
# [3] = molecular target: T3, Peroxisome proliferator-activated receptor alpha (Homo sapiens, UniProt Q07869); assay: Agonist activity at PPARalpha (unknown origin)
# T3 sequence (Q07869 whole entry): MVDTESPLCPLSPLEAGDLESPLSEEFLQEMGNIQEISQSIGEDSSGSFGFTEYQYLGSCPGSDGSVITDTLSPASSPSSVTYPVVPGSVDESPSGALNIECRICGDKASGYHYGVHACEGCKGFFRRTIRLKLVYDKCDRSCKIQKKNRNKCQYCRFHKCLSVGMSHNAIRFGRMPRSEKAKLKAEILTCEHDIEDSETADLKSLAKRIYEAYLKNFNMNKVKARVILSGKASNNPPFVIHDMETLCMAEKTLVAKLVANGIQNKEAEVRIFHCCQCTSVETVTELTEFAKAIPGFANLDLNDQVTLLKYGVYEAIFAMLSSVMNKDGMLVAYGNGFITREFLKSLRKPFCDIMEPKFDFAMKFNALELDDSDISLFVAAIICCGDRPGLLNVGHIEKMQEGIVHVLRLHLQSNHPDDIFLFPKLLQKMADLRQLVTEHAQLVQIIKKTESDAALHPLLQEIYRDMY
# [4] = Half life in Syrian hamster at 100 mg/kg, po; type: ADME, organism-based, Mesocricetus auratus; details: in vivo
# [5] = Cmax in Syrian hamster at 100 mg/kg, po; type: ADME, organism-based, Mesocricetus auratus; parameters: dose 100 mg/kg, route po; details: in vivo
# [6] = molecular target: T4, Peroxisome proliferator-activated receptor gamma (Homo sapiens) (UniProt P37231); assay: Partial agonist activity at PPARgamma (unknown origin) relative to control
# T4 sequence (whole entry): T2 sequence (P37231 whole entry)
# [7] = molecular target: T5, Peroxisome proliferator-activated receptor alpha (Homo sapiens) (UniProt Q07869); assay: Agonist activity at PPARalpha (unknown origin) at 20 uM relative to control; details: filed as agonist
# T5 sequence (whole entry): T3 sequence (Q07869 whole entry)
# [8] = molecular target: T6, Peroxisome proliferator-activated receptor delta (Homo sapiens) (UniProt Q03181); assay: Agonist activity at PPARdelta (unknown origin) at 20 uM relative to control; details: filed as agonist
# T6 sequence (whole entry): T1 sequence (Q03181 whole entry)
# [9] = Cmax in mouse at 100 mg/kg, PO; type: ADME, organism-based; parameters: dose 100 mg/kg, route po; details: in vivo
# [10] = Half life in mouse at 100 mg/kg, po; type: ADME, organism-based; details: in vivo
# [11] = molecular target: T5, Peroxisome proliferator-activated receptor alpha (Homo sapiens); assay: Agonist activity at PPARalpha (unknown origin) at 240 uM relative to control
# [12] = molecular target: T4, Peroxisome proliferator-activated receptor gamma (Homo sapiens); assay: Agonist activity at PPARgamma (unknown origin) at 80 uM relative to control; details: filed as agonist
# [13] = molecular target: T4, Peroxisome proliferator-activated receptor gamma (Homo sapiens); assay: Agonist activity at PPARgamma (unknown origin) at 0.1 to 25 uM relative to control; details: dose 0.1-25 µM
# [14] = molecular target: T3, Peroxisome proliferator-activated receptor alpha; assay: Binding affinity to PPARalpha (unknown origin)
# [15] = molecular target: T5, Peroxisome proliferator-activated receptor alpha (Homo sapiens); assay: Agonist activity at PPARalpha (unknown origin) relative to control; details: filed as agonist
structure (smiles),measurement,setting,value
C=CCc1ccc(O)c(-c2cc(CC=C)ccc2O)c1 [MAGNOLOL],EC50,[1],11.4 µM
Cc1coc2c1C(=O)C(=O)c1c-2ccc2c1CCCC2(C)C [TANSHINONE IIA],Ki,[2],2.56 µM
C=C1CC/C=C(\C)CC[C@@H]2[C@@H]1CC2(C)C [BETA-CARYOPHYLLENE],EC50,[3],9.58 µM
COc1cc(/C=C/c2cc(/C=C/c3ccc(O)c(OC)c3)n(-c3ccc(Cl)c(Cl)c3)n2)ccc1O,half-life,[4],2.8 h
same,Cmax,[5],1390 ng/mL
CC(C)=CCC[C@@](C)(O)[C@H]1CC[C@]2(C)[C@@H]1[C@H](O)C[C@@H]1[C@@]3(C)CC[C@H](O)C(C)(C)[C@@H]3[C@@H](O)C[C@]12C,Ki,[2],54.2 µM
O=c1c(O)c(-c2ccc(O)c(O)c2)oc2cc(O)cc(O)c12,Activity,[6],20%
COc1cc(/C=C/C(=O)CC(=O)/C=C/c2ccc(O)c(OC)c2)ccc1O [CURCUMIN],Cmax,[5],2.35 ng/mL
O=c1c(O)c(-c2ccc(O)cc2)oc2cc(O)cc(O)c12 [KAEMPFEROL],EC50,[3],15.5 µM
same,Activity,[7],433%
same,Activity,[8],155%
same,EC50,[1],341 µM
same,Activity,[6]; filed as partial agonist,45%
COc1cc(CCc2ccccc2)c(C(=O)O)c(O)c1CC=C(C)C [AMORFRUTIN A],Cmax,[9],42400 ng/mL
same,half-life,[10],2 h
O=C1C[C@@H](c2ccc(O)cc2)Oc2cc(O)cc(O)c21,Activity,[11],24%
same,Activity,[12],57%
CCCCCc1cc2c(c(O)c1C(=O)O)[C@@H]1C=C(C)CC[C@H]1C(C)(C)O2,Activity,[13],17%
COc1ccc2cc3[n+](cc2c1OC)CCc1cc2c(cc1-3)OCO2 [BERBERINE],Ki,[14],0.73 µM
same,EC50,[3],0.58 µM
same,Activity,[15],102%
same,EC50,[1],14 µM
